Assays:
AR = target: T1, AR (Rattus norvegicus, UniProt P15207)
T1 sequence (P15207 1-902): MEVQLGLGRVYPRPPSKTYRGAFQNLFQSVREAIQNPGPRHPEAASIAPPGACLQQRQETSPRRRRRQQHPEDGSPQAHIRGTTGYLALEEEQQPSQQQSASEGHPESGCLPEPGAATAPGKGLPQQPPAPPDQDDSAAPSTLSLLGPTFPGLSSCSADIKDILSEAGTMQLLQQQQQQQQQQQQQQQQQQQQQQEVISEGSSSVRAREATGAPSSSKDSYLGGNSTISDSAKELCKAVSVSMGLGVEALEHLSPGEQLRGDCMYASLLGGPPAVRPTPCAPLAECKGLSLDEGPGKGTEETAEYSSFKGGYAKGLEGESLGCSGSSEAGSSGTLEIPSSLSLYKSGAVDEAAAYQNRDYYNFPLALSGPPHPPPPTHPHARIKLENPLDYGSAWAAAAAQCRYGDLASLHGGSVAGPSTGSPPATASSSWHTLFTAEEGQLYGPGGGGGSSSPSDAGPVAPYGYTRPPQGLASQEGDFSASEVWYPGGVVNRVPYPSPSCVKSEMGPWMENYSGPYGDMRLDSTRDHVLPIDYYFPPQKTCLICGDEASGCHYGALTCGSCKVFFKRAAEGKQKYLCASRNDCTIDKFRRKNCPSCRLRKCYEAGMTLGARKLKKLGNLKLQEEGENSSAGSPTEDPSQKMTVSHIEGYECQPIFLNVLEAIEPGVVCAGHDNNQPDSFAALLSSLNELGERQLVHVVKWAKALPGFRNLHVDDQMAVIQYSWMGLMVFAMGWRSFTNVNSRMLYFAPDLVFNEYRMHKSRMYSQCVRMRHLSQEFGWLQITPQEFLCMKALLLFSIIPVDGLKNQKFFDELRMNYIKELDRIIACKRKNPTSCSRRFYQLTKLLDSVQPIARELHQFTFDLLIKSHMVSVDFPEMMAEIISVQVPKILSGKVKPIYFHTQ
Source text: Biol. Med., 83, 175 (1953); B. L. Beyler et al, “Methods for evaluating anabolic and catabolic agents in laboratory animals”, J. Amer. Med. Women's Ass., 23, 708 (1968); H. Fukuda et al., “Investigations of the levator ani muscle as an anabolic steroid assay”, Nago Dai. Yak. Ken. Nem. 14, 84 (1966) the disclosures of which are herein incorporated by reference.
The basis of this assay lies in the well-defined action of androgenic agents on the maintenance and growth of muscle tissues and sexual accessory organs in animals and man. […] J. Anat. […] Ital. Biol. Sper. […] II. […] Ital. Biol. Sper. 42, 1600 (1966); A. Boris et al., Steroids 15, 61 (1970). As described above, the effects of androgens on maintenance of male sexual accessory organs, such as the prostate and seminal vesicles, is well described. Castration results in rapid involution and atrophy of the prostate and seminal vesicles. This effect can be reversed by exogenous addition of androgens. Since both the levator ani muscle and the male sex organs are the tissues most responsive to the effects of androgenic agents, this model is used to determine the androgen dependent reversal of atrophy in the levator ani muscle and the sex accessory organs in immature castrated rats. Sexually mature rats (200-250 g, 6-8 weeks-old, Sprague-Dawley, Harlan) were acquired castrated from the vendor […]. […]

glucocorticoid receptor = glucocorticoid receptor (Homo sapiens, UniProt P04150); assay: cell-based; conditions: A549, read-out: % inhibition of the reporter system as compared to the buffer control with 10 ng/mL PMA alone
glucocorticoid receptor, sequence (P04150 whole entry): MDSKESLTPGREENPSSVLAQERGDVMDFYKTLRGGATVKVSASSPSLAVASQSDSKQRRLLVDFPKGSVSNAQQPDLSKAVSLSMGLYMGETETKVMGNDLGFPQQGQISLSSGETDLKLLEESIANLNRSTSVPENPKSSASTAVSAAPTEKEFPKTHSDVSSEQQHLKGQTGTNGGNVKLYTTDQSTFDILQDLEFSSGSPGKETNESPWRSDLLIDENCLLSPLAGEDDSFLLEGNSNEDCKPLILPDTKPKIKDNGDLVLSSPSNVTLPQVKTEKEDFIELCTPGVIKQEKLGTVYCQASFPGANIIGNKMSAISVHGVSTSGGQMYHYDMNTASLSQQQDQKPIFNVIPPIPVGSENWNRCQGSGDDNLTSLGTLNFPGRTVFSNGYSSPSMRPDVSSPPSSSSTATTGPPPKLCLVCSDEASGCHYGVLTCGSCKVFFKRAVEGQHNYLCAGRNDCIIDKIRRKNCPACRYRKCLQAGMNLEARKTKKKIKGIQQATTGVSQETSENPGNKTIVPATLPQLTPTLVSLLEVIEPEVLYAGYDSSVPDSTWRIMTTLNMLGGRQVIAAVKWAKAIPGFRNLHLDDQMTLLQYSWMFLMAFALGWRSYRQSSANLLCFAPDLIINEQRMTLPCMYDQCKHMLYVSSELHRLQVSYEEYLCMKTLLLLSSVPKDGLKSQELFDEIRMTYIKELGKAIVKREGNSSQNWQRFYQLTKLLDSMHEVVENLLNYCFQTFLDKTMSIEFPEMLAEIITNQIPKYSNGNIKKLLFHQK
Procedure: The AP-1 assay is a cell-based luciferase reporter assay. A549 cells, which contain endogenous glucocorticoid receptor, were stably transfected with an AP-1 DNA binding site attached to the luciferase gene. Cells are then grown in RPMI+10% fetal calf serum (charcoal-treated)+Penicillin/Streptomycin with 0.5 mg/mL geneticin. Cells are plated the day before the assay at approximately 40000 cells/well. On assay day, the media is removed by aspiration and 20 μL assay buffer (RPMI without phenol red+10% FCS (charcoal-treated)+Pen/Strep) is added to each well. At this point either 20 μL assay buffer (control experiments), the compounds of the present invention (“test compounds”) (dissolved in DMSO and added at varying concentrations) or dexamethasome (100 nM in DMSO, positive control) are added to each well. The plates are then pre-incubated for 15 min at 37° C., followed by stimulation of the cells with 10 ng/mL PMA. The plates are then incubated for 7 h at 37° C. after which 40 μL luciferase substrate reagent is added to each well. Activity is measured by analysis in a luminometer as compared to control experiments treated with buffer or dexamethasome.

[1] = tested on: wild type AR (MDA 453 cells); conditions: read-out: Kd for [3H]-DHT, Scatchard analysis, 4 h at 37° C.
Procedure: For the whole-cell binding assay, human LNCaP cells (T877A mutant AR) or MDA 453 (wild type AR) in 96-well microtiter plates containing RPMI 1640 or DMEM supplemented with 10% charcoal stripped CA-FBS (Cocaleco Biologicals) respectively, were incubated at 37° C. to remove any endogenous ligand that might be complexed with the receptor in the cells.
For the saturation analysis, the difference between the total binding and the non-specific binding, was defined as specific binding. […] See e.g. D. Rodbard, Mathematics and statistics of ligand assays: an illustrated guide: In: J. Langon and J. J. Clapp, eds., Ligand Assay, Masson Publishing U.S.A., Inc., New York, pp. 45-99, (1981), the disclosure of which is herein incorporated by reference.
Two replicates were used for each sample. […] After correcting for non-specific binding, IC50 values were determined. […] C2C12 Mouse Myoblast Transactivation Assay

## CCC(=O)O[C@H]1CC[C@H]2[C@@H]3CCC4=CC(=O)CC[C@]4(C)[C@H]3CC[C@]12C [TP, testosterone propionate]
AR; castrated rats, organ weight
  EC50 (increase in organ weight): ~0.03 mg
AR; higher potency than free T
  potency relative to free T: 10-30 fold

## C[C@@H]1C[C@H]2[C@@H]3CCC4=CC(=O)C=C[C@]4(C)[C@@]3(F)[C@@H](O)C[C@]2(C)[C@@]1(O)C(=O)CO [dexamethasone]
Glucocorticoid receptor
  inhibition at 10 µM: 65%

## tritiated dihydrotestosterone [[^3H]-DHT]
[1]
  Kd: 0.7 nM
